Key:
[1] = Selectivity ratio of Ki for displacement of [3H]DTG from sigma 2 receptor in rat liver membranes to Ki for displacement of [3H]-(+)-pentazocine from sigma1 receptor in guinea pig brain cortex membranes; assay type: cell membranes
[2] = biological target: Sigma non-opioid intracellular receptor 1 (Cavia porcellus, UniProt Q60492); experiment: Displacement of [3H]-(+)-pentazocine from sigma1 receptor in guinea pig brain cortex membranes measured after 120 mins by scintillation counting method; assay type: cell membranes
[3] = biological target: T1, Sigma intracellular receptor 2 (Rattus norvegicus, UniProt Q5U3Y7); experiment: Displacement of [3H]DTG from sigma 2 receptor in rat liver membranes measured after 120 mins by scintillation counting method; assay type: cell membranes, Membrane
T1 sequence (Q5U3Y7 whole entry): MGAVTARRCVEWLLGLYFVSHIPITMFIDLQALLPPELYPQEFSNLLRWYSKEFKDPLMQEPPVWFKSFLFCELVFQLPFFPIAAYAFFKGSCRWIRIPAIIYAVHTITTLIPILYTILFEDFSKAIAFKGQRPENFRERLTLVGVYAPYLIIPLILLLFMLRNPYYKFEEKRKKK

[4] = biological target: T2, Sigma intracellular receptor 2 (Rattus norvegicus) (UniProt Q5U3Y7); experiment: Displacement of [3H]DTG from sigma 2 receptor in rat liver membranes at 1 uM measured after 120 mins by scintillation counting method; assay type: cell membranes; conditions: Membrane
T2 sequence (whole entry): T1 sequence (Q5U3Y7 whole entry)

[5] = biological target: Sigma non-opioid intracellular receptor 1 (Cavia porcellus) (UniProt Q60492); experiment: Displacement of [3H]-(+)-pentazocine from sigma1 receptor in guinea pig brain cortex membranes at 1 uM measured after 120 mins by scintillation counting method; assay type: cell membranes
Chain of Sigma non-opioid intracellular receptor 1 (Cavia porcellus) (Q60492 whole entry): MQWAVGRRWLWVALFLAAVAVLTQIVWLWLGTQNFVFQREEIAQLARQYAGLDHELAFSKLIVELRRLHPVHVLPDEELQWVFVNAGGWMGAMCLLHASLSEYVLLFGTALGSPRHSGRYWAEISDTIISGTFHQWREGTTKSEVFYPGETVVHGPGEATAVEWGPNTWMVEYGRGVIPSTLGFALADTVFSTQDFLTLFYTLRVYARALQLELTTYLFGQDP

Chain of Sigma non-opioid intracellular receptor 1 (Q60492 whole entry): as above

Structure (SMILES)	Ratio Ki [1]	Ki [2] [µM]	Ki [3] [µM]	inhibition [4] [%]	inhibition [5] [%]
c1ccc(CN2CCC34CCCCC3(CCC4)C2)cc1 (racemic)	11	0.017	0.19	–	–
OC1CC23CCCCC2(C1)CN(Cc1ccccc1)CC3 (racemic; anti) [listing 1 of 2 here]	–	0.122	2.04	–	–
OC1CC23CCCCC2(C1)CN(Cc1ccccc1)CC3 (racemic; anti) [listing 2 of 2 here]	17	–	–	–	–
OC1CC23CCCCC2(C1)CN(Cc1ccccc1)CC3 (racemic; syn) [listing 1 of 2 here]	–	0.336	0.69	–	–

Now from value to compound:

Ratio Ki [1]	Ki [2] [µM]	Ki [3] [µM]	inhibition [4] [%]	inhibition [5] [%]	Structure (SMILES)
–	0.082	–	–	–	COc1ccc(C)cc1NC(=O)OC1CC23CCCCC2(C1)CN(Cc1ccccc1)CC3 (racemic; anti) [listing 1 of 2 here]
> 12	–	–	8	–	COc1ccc(C)cc1NC(=O)OC1CC23CCCCC2(C1)CN(Cc1ccccc1)CC3 (racemic; anti) [listing 2 of 2 here]
–	–	–	0	12	COc1ccc(C)cc1NC(=O)OC1CC23CCCCC2(C1)CN(Cc1ccccc1)CC3 (racemic; syn)
2	–	–	–	–	OC1CC23CCCCC2(C1)CN(Cc1ccccc1)CC3 (racemic; syn) [listing 2 of 2 here]

From ChEMBL document CHEMBL4219097, “Synthesis of 3-aza[4.4.3]propellanes with high σ1 receptor affinity” (Bioorg Med Chem, 2018)
